Results reported in patent publication US11304970B2, “EGFR gene expression-suppressing siRNA, precursor of same, and applications thereof” (JIANGSU MICROMEDMARK BIOTECH CO., LTD., priority 2016, dated 2022).

System: mouse Lewis lung cancer
Test: Survival (Kaplan-Meier) and micro-CT tumour examination in Lewis lung cancer mice (Example 3)
Conditions: 5 mg/kg, once every 3 days, 7 times, plasmid intravenous, Gefitinib oral
Method: To further study the therapeutic effect of the EGFR siRNA plasmid on mouse Lewis lung cancer, after successful model construction of Lewis lung cancer mice, we performed treatment in the following three groups: the EGFR-si plasmid group, Gefitinib group and control plasmid group, respectively. […] The EGFR-si plasmid and control plasmid were administered by intravenous injection, and Gefitinib was administered orally. The dosage in each treatment group was 5 mg/kg, and the administration interval was once every 3 days, for a total of 7 times. After the treatment, we recorded the survival situation of the mice and plotted the Kaplan-Meier survival curve using the Graphpad Prism statistical software.

Question: COc1cc2ncnc(Nc3ccc(F)c(Cl)c3)c2cc1OCCCN1CCOCC1 [Gefitinib] was tested. Which “change of lung tumours after the treatment (micro-CT)” value did it give?
Answer: Its value is “the tumours generally grew”.
